Results published in US11143585B2, “Photoelectrical device for concentration detection, method for concentration detection thereof and method for testing an antibiotic susceptibility on bacteria” (priority 2018, dated 2021).

Legend:
[1] = system: oxacillin-resistant Staphylococcus aureus (ORSA); assay: Antibiotic effectiveness test with the photoelectrical device, fluid sample containing ORSA and oxacillin; format: cell-based
Method: (§1) FIG. 3A is an electric current-voltage curve obtained by the photoelectrical device of the present invention for detecting an effectiveness of an antibiotic on bacteria. In the method for testing the effectiveness of an antibiotic on bacteria of the present invention, firstly, a fluid sample containing bacteria and an antibiotic is prepared, wherein the bacterial concentration of the fluid sample is between 10^4 and 10^5 CFU/ml. Use FIG. 3A as an example, the fluid sample to be detected contains an antibiotic: oxacillin, and bacteria: oxacillin-resistant Staphylococcus aureus (ORSA, hereinafter as ORSA for short). There is also another control sample used as a control group containing oxacillin and oxacillin-susceptible Staphylococcus aureus (OSSA, hereinafter as OSSA for short). In FIG. 3A, curve B3 is the background information and is drawn by detecting a sterile fluid sample. Curve OS31 is drawn by detecting the control sample containing OSSA and oxacillin, and curve OR31 is drawn by detecting a fluid sample containing ORSA and oxacillin.
Both the above fluid sample and the control sample are added with oxacillin of a concentration of about 4 μg/ml in the tryptic soy broth (TSB) to incubate OSSA and ORSA respectively, and both of them respectively contain OSSA and ORSA with a bacterial concentration of 6×10^4 CFU/ml. After preparing the above fluid sample and the control sample, the bacteria (ORSA) in the fluid sample and the bacteria (OSSA) in the control sample are incubated, wherein the time for incubating the bacteria can be more than 3 hours, for example, 4 hours. […]
(§2) FIG. 3B is a diagram illustrating the relationship between the change rate of electric current and the incubation time measured on the photoelectric device 100 after being incubated for different periods of time based on FIG. 3A, wherein the vertical axis represents the change rate of electric current and its definition is the same as the above mathematical formula (1), while the horizontal axis represents the incubation time (also referred to as incubation period). […]

[2] = system: oxacillin-susceptible Staphylococcus aureus (OSSA); assay: Antibiotic effectiveness test with the photoelectrical device, control sample containing OSSA and oxacillin; format: cell-based; details: oxacillin about 4 μg/ml in TSB, initial 6×10^4 CFU/ml
Method: as §1, with “Curve OS31 is drawn by detecting the control sample containing OSSA and oxacillin, and curve OR31 is drawn by detecting a fluid sample containing ORSA and oxacillin.” left out
as §2

## Cc1onc(-c2ccccc2)c1C(=O)N[C@@H]1C(=O)N2[C@@H]1SC(C)(C)[C@@H]2C(=O)O [oxacillin]
[1]; oxacillin about 4 μg/ml in TSB, initial 6×10^4 CFU/ml, after 4 hours of incubation time, FIG. 3B curve OR32
  change rate of electric current of the ORSA fluid sample: more than 10%
[1]; oxacillin about 4 μg/ml in TSB, initial 6×10^4 CFU/ml, increasing incubation time
  inhibition of ORSA reproduction (conclusion from change rate of electric current): not inhibited by oxacillin
[1]; oxacillin about 4 μg/ml, after more than 3 hours of incubation period, FIG. 3B
  difference between the change rates of electric current of the ORSA fluid sample and the OSSA control sample: ≥ 4%
[2]; FIG. 3B curve OS32
  change in the change rate of electric current of the OSSA sample as incubation time increases: no significant change
[2]; increasing incubation time
  inhibition of OSSA reproduction (conclusion from change rate of electric current): inhibited by oxacillin and difficult to reproduce
